In patent EP0253697A2, “Medicament and medicament compositions for the treatment of infective diseases due to viruses, as well as for the treatment of tumours” (INSTITUT NATIONAL DE LA SANTE ET DE LA RECHERCHE MEDICALE …, priority 1986, dated 1988):

Columns and labels:
leucémie L1 210 [1] = test: Survival of mice inoculated with L1 210 leukaemia; assay type: in vivo, souris DBA/2; settings: 5x10^5 cells IP; 1200 mg/kg/day days 1-4, 600 mg/kg/day days 8-10; Figure 8
From the text: (§1) Compte tenu des résultats in vitro, l'activité anti-tumorale de GAH a été étudiée sur deux modèles tumoraux murins : leucémie L1 210 et mélanome B16.
Pour la leucémie L1 210, maintenue par passage intra-péritonéal chez la souris DBA/2, le nombre de cellules utilisées pour les essais thérapeutiques est de 5.10^5 cellules par souris.
(§2) Les résultats positifs qui ont été obtenus sont exprimés par le pourcentage d'augmentation de la survie, considérant comme significative une augmentation de 30%.
Courbe de survie des souris DBA/2-B6D2F1 inoculées avec L1 210 (5x10^5 cellules dans 0,5 ml IP) après traitement avec L-glutamique acide monohydroxamate : 1200 mg/kg dose/jour, les jours 1, 2, 3, 4; et 600 mg/kg dose/jour, les jours 8, 9, 10 (les groupes sont constitués de 8 souris.). - Abscisses : jours après l'inoculation de cellules tumorales - Ordonnées : pourcentage de souris vivantes.

[2] = tested on: colonies métas- tasiantes du mélanome B 16; test: Cytolytic effect on cells isolated from metastases in vitro; assay type: cell-based
virus Visna = test: Reverse transcriptase activity, infected sheep embryo fibroblasts; assay type: cell-based, mouton; settings: GAH present at the time of infection, versus untreated cells; Figure 1B
[3] = tested on: virus de l'herpès simplex du type 1 (HSV.1); test: Inhibition of viral lysis plaque formation (PFU) in infected VERO cells; assay type: cell-based; settings: in vitro, DNA virus
From the text: (§3) Des cellules VERO (lignée de cellules "normales") ont été infectées par le virus de l'herpès simplex du type 1 (HSV.1) ou par le virus de la rougeole à une multiplicité d'infection d'une particule infectieuse par cellule. Les cellules infectées ont été traitées par GAH aux doses indiquées sur la Figure 1. L'inhibition observée, emprimée en logarithme d'inhibition de la formation de plages de lyse cellulaire par le virus (PFU-"Plage Forming Unit") par ml de milieu, semble apparaître brusquement après avoir dépassé une concentration "seuil" située autour de 600 lim. par litre de milieu cellulaire. Le fait que la concentration optimale soit la même pour les deux virus testés, qui, comme indiqué ci-dessus, sont très différents, est en faveur d'une action de la substance au niveau cellulaire, action capable d'éveiller un état de résistance envers les virus infectants.

virus de la rougeole = test: as above; assay type: cell-based; settings: in vitro, RNA virus
From the text: as §3

mélanome B16 = test: Survival of mice inoculated with B16 melanoma; assay type: in vivo, souris; settings: 10^6 cells IP; 1200 mg/kg/day days 1-4, 600 mg/kg/day days 8-11, 300 mg/kg/day days 16-19; Figure 9
From the text: as §1
Pour le mélanome B16, maintenu par passage souscutanés successifs, la dose injectée par voie intra-péritonéale pour les essais thérapeutiques est de 10^6 cellules par souris.
as §2
Courbe de survie des souris C5b16 inoculées avec les cellules de mélanome B16 (10^6 cellules dans 0,5 ml IP)après traitement avec GAH : 1200 mg/kg dose/jour, les jours 1, 2, 3, 4; 600 mg/kg dose/jour, les jours 8, 9, 10, 11; et 300 mg/kg dose/jour, les jours 16, 17, 18, 19 (les groupes traités et non traités sont de 6 animaux). - Abscisses : jours après l'inoculation de cellules tumorales - Ordonnées : pourcentage de souris vivantes

cellules de mélanome = test: Survival of melanoma cells versus dose and contact time; assay type: cell-based
Procedure: Sur une lignée de mélanome prise comme exemple, on peut voir que l'effet inhibiteur est dépendant de la dose (Figure 3), mais également du temps de contact. Dès 2 heures de contact des cellules de mélanome avec 1,5 mM de GAH, il y a mort cellulaire, qui s'amplifie jusqu'à 72 heures de culture des cellules tumorales, puis les cellules échappent à cette inhibition (Figure 4). […] Ainsi, pour les cellules de mélanome, un contact de 30 heures avec 1,5 mM de GAH est nécessaire pour avoir une mort cellulaire complète à 72 heures, alors que 50 heures de contact sont nécessaires avec une concentration de drogue de 400 µM (Figure 5).
- Abscisses : temps de contact des cellules de mélanome avec différentes concentrations de GAH : • 400 µM; ○ 1 mM; . 1,5 mM - Ordonnées : pourcentage de survie des cellules de mélanome à 72 heures.

[4] = tested on: cellules de lymphome murin RBL5; test: DNA synthesis (3H-thymidine incorporation) in tumour cells; assay type: cell-based
[5] = tested on: carcinome du colon (lignée HT29); test: as above; assay type: cell-based, humain
From the text: (§4) L'effet du GAH a été étudié sur diverses lignées cellulaires obtenues à partir de tumeurs humaines et fibroblastes de poumon foetal humain (MRC5).
(§5) - Ordonnées : incorporation de ^3H-thymidine (comptage de la radioactivité correspondante en coups par minute (CPM).

[6] = tested on: cellules de tumeurs de Burkitt; test: as above; assay type: cell-based, humain
From the text: as §4, §5

mélanome = test: as above; assay type: cell-based, humain
From the text: as §4, §5

[7] = tested on: carcinome de tumeur mammaire (lignée MCF7); test: as above; assay type: cell-based, humain
From the text: as §4, §5

[8] = tested on: llgnée de tumeur d' Ewing; test: as above; assay type: cell-based, humain
From the text: as §4, §5

[9] = tested on: virus du sarcome de Rous (RSV, souche B77); test: Reverse transcriptase activity in culture medium and focus formation, infected chicken fibroblasts; assay type: cell-based, poulet
From the text: Il a été également montré que le GAH provoque aussi une importante inhibition de la multiplication des virus appartenant à la famille des rétrovirus (virus à ARN possédant une activité dite de transcriptase inverse, c'est-à-dire une ADN polymé- rase-ARN dépendante). Ceci a été démontré avec le virus du sarcome de Rous (RSV, virus oncogène, sous-famille oncovirinae) et avec le virus visna (virus lytique, sous-famille lentivirinae à laquelle appartient aussi le H.I.V.). • 1 - Des fibroblastes de poulet, en passage secondaire, sont ensemencés et traités, ou non, par le GAH à diverses concentrations. Ensuite, les cellules sont infectées par le RSV (souche B77). Le milieu de culture des cellules infectées est recueilli à différents temps post- infection et l'activité transcriptase inverse a été mesurée, cette mesure étant considérée généralement comme un reflet de la libération des particules virales dans les milieux de culture. […] Il est intéressant de signaler que, comme dans le cas des hespesvirus, l'activité antivirable apparaît à la même dose de GAH capable de provoquer l'arrêt de la prolifération cellulaire, ce qui est en accord avec la notion d'une action du GAH agissant en premier lieu au niveau cellulaire.

leucémie L1 210 [10] = test: DNA synthesis (3H-thymidine incorporation) in tumour cells; assay type: cell-based, murin; settings: Figure 2
From the text: as §4
- Abscisses : temps de contact des différentes cellules avec le le L-glutamique acide y monohydroxamate : 1-L1210 • 2 - BL60 • 3 - NterDau • 4-B16
as §5

[11] = tested on: cellules (infectées ou non); test: Toxicity for the cells (infected or not) in the antiviral experiments; assay type: cell-based
cellules normales MRC5 = test: Growth, DNA synthesis and survival of normal MRC5 cells; assay type: cell-based, humain
From the text: as §4
(§6) La croissance des cellules MRC5 dans un milieu déprimé en glutamine est aussi arrêtée, avec, cependant, un décalage dans l'inhibition par rapport à l'effet du GAH. […] Il s'agit probablement de deux mécanismes d'action différents.
(§7) • - Abscisses : temps de culture des cellules MRC5 : 1. avec différentes conditions de culture • O témoin MRC5 milieu normal • milieu déprimé en glutamine • ? milieu normal avec D-glutamyl acide (GAH 2. après élimination des différentes drogues et addition • ? milieu normal MRC5 témoin • milieu avec glutamine 2mM • ? milieu normal • ? milieu GAH + glutamine 2mM • - Ordonnées : nombre de cellules vivantes.

[12] = as above; assay type: cell-based, humain; settings: human; normal MRC5 cells, Figure 6; read-out: doses sans mort cellulaire
From the text: as §4, §6, §7

## N[C@@H](CCC(=O)NO)C(=O)O [GAH, L-glutamique acide y monohydroxamate]
leucémie L1 210 [1]
  activité antitumorale (augmentation de la survie): activité antitumorale
[2]
  effet sur des cellules isolées de métastases: effet cytolytique
Virus Visna
  activité transcriptase inverse: diminution considérable
[3]
  inhibition du virus: inhibition très significative
Virus de la rougeole
  inhibition du virus: inhibition très significative
mélanome B16
  activité antitumorale (augmentation de la survie): activité antitumorale
Cellules de mélanome; 400 µM GAH (Figure 5)
  temps de contact nécessaire pour une mort cellulaire complète à 72 heures: 50 heures
Cellules de mélanome; 1,5 mM GAH (Figure 5)
  temps de contact nécessaire pour une mort cellulaire complète à 72 heures: 30 heures
Cellules de mélanome; 1,5 mM GAH, death from this contact time on, increasing up to 72 h of culture (Figure 4)
  temps de contact à partir duquel il y a mort cellulaire: 2 heures
[4]
  effet sur la synthèse de l'ADN: effet inhibiteur total
[5]
  effet sur la synthèse de l'ADN: effet inhibiteur total
[6]
  effet sur la synthèse de l'ADN: effet inhibiteur total
mélanome
  effet sur la synthèse de l'ADN: effet inhibiteur total
[7]
  effet sur la synthèse de l'ADN: effet inhibiteur total
[8]
  effet sur la synthèse de l'ADN: effet inhibiteur total
[9]; GAH 1mM present at the time of infection, chicken fibroblasts, Figure 1A
  activité transcriptase inverse dans le milieu de culture: indétectable
[9]; GAH-treated cultures, untreated controls show foci after three days
  formation de foyers de cellules transformées par le RSV: aucune formation de foyers
leucémie L1 210 [10]
  effet sur la synthèse de l'ADN: effet inhibiteur total
[11]
  toxicité pour les cellules: faible taux, voire l'absence, de toxicité
Cellules normales MRC5
  synthèse de l'ADN des cellules normales MRC5: arrêt de synthèse de l'ADN
Cellules normales MRC5; GAH-treated MRC5 cells, glutamine 2mM added (Figure 7)
  réversion de la croissance par addition de glutamine: ne reverse pas
Cellules normales MRC5; reversible after removal of the drug
  effet sur les cellules normales: effet cytostatique
[12]
  MNTC: ≤ 800 µM
